In assay [1] the target is T1, B. mori GABAR RDL (wild-type isoform, exon 3b and exon 6d) (Bombyx mori, UniProt U3TMA1).
T1 construct: full cDNA in pcDNA3.1, cRNA expressed in Xenopus laevis oocytes; RDL injected alone (homomer)
T1 sequence (U3TMA1 29-482): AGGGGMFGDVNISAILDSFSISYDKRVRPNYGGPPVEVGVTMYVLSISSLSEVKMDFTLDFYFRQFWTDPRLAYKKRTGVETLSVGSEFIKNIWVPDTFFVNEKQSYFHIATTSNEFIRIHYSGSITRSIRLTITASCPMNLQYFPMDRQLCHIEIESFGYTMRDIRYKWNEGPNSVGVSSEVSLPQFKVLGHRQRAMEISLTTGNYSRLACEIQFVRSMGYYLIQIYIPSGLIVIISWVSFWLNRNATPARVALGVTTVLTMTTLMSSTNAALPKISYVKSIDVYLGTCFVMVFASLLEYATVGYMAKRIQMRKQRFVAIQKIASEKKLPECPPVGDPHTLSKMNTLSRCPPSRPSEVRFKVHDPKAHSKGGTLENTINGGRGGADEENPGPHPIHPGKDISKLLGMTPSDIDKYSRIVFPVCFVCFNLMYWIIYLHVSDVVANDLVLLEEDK
Description: two-electrode voltage clamp, Xenopus oocytes, block of GABA peak current. It counts as cell-based. Background: Two-electrode voltage clamp holds a large cell at a set potential and records current.

In assay [2] the target is T1, B. mori GABAR RDL (wild-type isoform, exon 3b and exon 6d). The assay is described as follows: two-electrode voltage clamp, Xenopus oocytes, agonist concentration-response. Type of assay: cell-based.

With `N#Cc1nn(-c2c(Cl)cc(C(F)(F)F)cc2Cl)c(N)c1[S+]([O-])C(F)(F)F` (centres unmarked) [fipronil], in assay [1], the IC50 stood at 0.0394 µM. This counts as double-digit nanomolar. Consider `NCCCC(=O)O` [GABA], for which the EC50 in assay [2] was determined as 41.1 µM. This lies in the double-digit micromolar range.

As usually defined, the IC50 is the concentration needed to halve the response being measured. A low value points to higher potency. One may read the EC50 as the midpoint of the concentration-response curve.

The values are drawn from paper PMC4406737, “Meroterpenoid Chrodrimanins Are Selective and Potent Blockers of Insect GABA-Gated Chloride Channels” (PLoS ONE, 2015).
